Laboratory results taken from US10653689B2, “Combination-based treatment method” (priority 2014, dated 2020).

Tested on: BRCA1-deficient human breast cancer cell line, MX-1
Assay: Tumor growth delay in MX-1 human breast cancer model in mice
Type: in vivo
Parameters: Median TTE: unit not given beside the values
Procedure: Cancerous cells from the BRCA1-deficient human breast cancer cell line, MX-1, were injected subcutaneously in female mice. […]
Animal weight, clinical observations and tumor volume were monitored twice/week until the endpoint (2000 mm^3 of tumor volume or Day 88) was met.
Efficacy was measured by tumor growth delay and regression response rate.

[1] = rucaparib 30 mg/kg po q.d. × 21
[2] = rucaparib 150 mg/kg po q.d. × 21

## CNCc1ccc(-c2[nH]c3cc(F)cc4c3c2CCNC4=O)cc1 [rucaparib]
[1]
  Median TTE: 39
  Regressions CR: 0%
  Regressions PR: 0%
  Regressions TFS: 0%
  Statistical Results For Groups Tested: Significant against vehicle (p ≤ 0.05)
  T-C: 14 days
  TGD: 56%
[2]
  Median TTE: 43
  Regressions CR: 0%
  Regressions PR: 0%
  Regressions TFS: 0%
  Statistical Results For Groups Tested: Significant against vehicle (p ≤ 0.01)
  T-C: 18 days
  TGD: 73%
Single agent, at both the 30 mg/kg and 150 mg/kg dosages
  efficacy (mean tumor volumes, FIG. 1): only marginally effective

## pentaerythritol-based multi-arm polymer conjugate of irinotecan [PBMAPCI]
PBMAPCI 10 mg/kg iv qwk × 4
  Median TTE: 57
  Regressions CR: 10%
  Regressions PR: 0%
  Regressions TFS: 10%
  Statistical Results For Groups Tested: Significant against vehicle (p ≤ 0.001)
  T-C: 32 days
  TGD: 129%
PBMAPCI 50 mg/kg iv qwk × 4
  Median TTE: 88
  Regressions CR: 100%
  Regressions PR: 0%
  Regressions TFS: 100%
  Statistical Results For Groups Tested: Significant against vehicle (p ≤ 0.001)
  T-C: 63 days
  TGD: 252%
